Source: PubChem BioAssay (NCI)
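A five-concentration, 48-hour dose response in 96-well plates underlies each endpoint, interpolated linearly between surrounding concentrations. TGI: concentration producing complete growth inhibition.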

What was measured:
Experiment in all cases: NCI anticancer screen, dose series, 48 h
786-0 renal = tested on: 786-0 renal
A498 renal = tested on: A498 renal
A549 NSCLC = tested on: A549 NSCLC
ACHN renal = tested on: ACHN renal
BT-549 breast = tested on: BT-549 breast
CAKI-1 renal = tested on: CAKI-1 renal
CCRF-CEM leukemia = tested on: CCRF-CEM leukemia
COLO 205 colon = tested on: COLO 205 colon
DU-145 prostate = tested on: DU-145 prostate
EKVX NSCLC = tested on: EKVX NSCLC
HCT-116 colon = tested on: HCT-116 colon
HCT-15 colon = tested on: HCT-15 colon
HL-60(TB) leukemia = tested on: HL-60(TB) leukemia
HOP-62 NSCLC = tested on: HOP-62 NSCLC
HOP-92 NSCLC = tested on: HOP-92 NSCLC
HS 578T breast = tested on: HS 578T breast
HT29 colon = tested on: HT29 colon
IGROV1 ovarian = tested on: IGROV1 ovarian
KM12 colon = tested on: KM12 colon
LOX IMVI melanoma = tested on: LOX IMVI melanoma
M14 melanoma = tested on: M14 melanoma
MALME-3M melanoma = tested on: MALME-3M melanoma
MCF7 breast = tested on: MCF7 breast
MDA-MB-231 breast = tested on: MDA-MB-231 breast
MDA-MB-435 = tested on: MDA-MB-435
MDA-N = tested on: MDA-N
MOLT-4 leukemia = tested on: MOLT-4 leukemia
NCI-H226 lung = tested on: NCI-H226 lung
NCI-H23 lung = tested on: NCI-H23 lung
NCI-H460 lung = tested on: NCI-H460 lung
NCI-H522 lung = tested on: NCI-H522 lung
NCI/ADR-RES ovarian = tested on: NCI/ADR-RES ovarian
OVCAR-3 ovarian = tested on: OVCAR-3 ovarian
OVCAR-4 ovarian = tested on: OVCAR-4 ovarian
OVCAR-5 ovarian = tested on: OVCAR-5 ovarian
OVCAR-8 ovarian = tested on: OVCAR-8 ovarian
PC-3 prostate = tested on: PC-3 prostate
SF-268 CNS = tested on: SF-268 CNS
SF-295 CNS = tested on: SF-295 CNS
SF-539 CNS = tested on: SF-539 CNS
SK-MEL-2 melanoma = tested on: SK-MEL-2 melanoma
SK-MEL-28 melanoma = tested on: SK-MEL-28 melanoma
SK-MEL-5 melanoma = tested on: SK-MEL-5 melanoma
SK-OV-3 ovarian = tested on: SK-OV-3 ovarian
SN12C renal = tested on: SN12C renal
SNB-19 CNS = tested on: SNB-19 CNS
SNB-75 CNS = tested on: SNB-75 CNS
SW-620 colon = tested on: SW-620 colon
T-47D breast = tested on: T-47D breast
TK-10 renal = tested on: TK-10 renal
U251 CNS = tested on: U251 CNS
UACC-257 melanoma = tested on: UACC-257 melanoma
UACC-62 melanoma = tested on: UACC-62 melanoma
UO-31 renal = tested on: UO-31 renal
HCC-2998 colon = tested on: HCC-2998 colon
RPMI-8226 leukemia = tested on: RPMI-8226 leukemia
RXF 393 renal = tested on: RXF 393 renal
SR leukemia = tested on: SR leukemia

Structure (SMILES): CC1(CC2=C(C(=O)NCCO[Si](C)(C)C(C)(C)C)C3(OCCO3)C2=O)OCCO1
- TGI (786-0 renal): > 100000 nM
- TGI (A498 renal): > 100000 nM
- TGI (A549 NSCLC): > 100000 nM
- TGI (ACHN renal): > 100000 nM
- TGI (BT-549 breast): > 100000 nM
- TGI (CAKI-1 renal): > 100000 nM
- TGI (CCRF-CEM leukemia): > 100000 nM
- TGI (COLO 205 colon): > 100000 nM
- TGI (DU-145 prostate): > 100000 nM
- TGI (EKVX NSCLC): > 100000 nM
- TGI (HCT-116 colon): > 100000 nM
- TGI (HCT-15 colon): > 100000 nM
- TGI (HL-60(TB) leukemia): > 100000 nM
- TGI (HOP-62 NSCLC): > 100000 nM
- TGI (HOP-92 NSCLC): > 100000 nM
- TGI (HS 578T breast): > 100000 nM
- TGI (HT29 colon): > 100000 nM
- TGI (IGROV1 ovarian): > 100000 nM
- TGI (KM12 colon): > 100000 nM
- TGI (LOX IMVI melanoma): > 100000 nM
- TGI (M14 melanoma): > 100000 nM
- TGI (MALME-3M melanoma): 72700 nM
- TGI (MCF7 breast): > 100000 nM
- TGI (MDA-MB-231 breast): > 100000 nM
- TGI (MDA-MB-435): > 100000 nM
- TGI (MDA-N): > 100000 nM
- TGI (MOLT-4 leukemia): > 100000 nM
- TGI (NCI-H226 lung): > 100000 nM
- TGI (NCI-H23 lung): > 100000 nM
- TGI (NCI-H460 lung): > 100000 nM
- TGI (NCI-H522 lung): 93700 nM
- TGI (NCI/ADR-RES ovarian): > 100000 nM
- TGI (OVCAR-3 ovarian): > 100000 nM
- TGI (OVCAR-4 ovarian): > 100000 nM
- TGI (OVCAR-5 ovarian): > 100000 nM
- TGI (OVCAR-8 ovarian): > 100000 nM
- TGI (PC-3 prostate): > 100000 nM
- TGI (SF-268 CNS): > 100000 nM
- TGI (SF-295 CNS): > 100000 nM
- TGI (SF-539 CNS): > 100000 nM
- TGI (SK-MEL-2 melanoma): > 100000 nM
- TGI (SK-MEL-28 melanoma): > 100000 nM
- TGI (SK-MEL-5 melanoma): > 100000 nM
- TGI (SK-OV-3 ovarian): > 100000 nM
- TGI (SN12C renal): > 100000 nM
- TGI (SNB-19 CNS): > 100000 nM
- TGI (SNB-75 CNS): > 100000 nM
- TGI (SW-620 colon): > 100000 nM
- TGI (T-47D breast): > 100000 nM
- TGI (TK-10 renal): > 100000 nM
- TGI (U251 CNS): > 100000 nM
- TGI (UACC-257 melanoma): > 100000 nM
- TGI (UACC-62 melanoma): > 100000 nM
- TGI (UO-31 renal): > 100000 nM

Structure (SMILES): CC(=O)OCC1=C(C)C[C@H]([C@@H](COC(C)=O)C2CCC3C4C[C@H]5O[C@]56CC=CC(=O)[C@]6(C)C4CC[C@@]32C)OC1=O (stereo not given in full)
- TGI (786-0 renal): 1580 nM
- TGI (A498 renal): 1640 nM
- TGI (A549 NSCLC): 7120 nM
- TGI (ACHN renal): 2680 nM
- TGI (BT-549 breast): 3650 nM
- TGI (CAKI-1 renal): 2640 nM
- TGI (CCRF-CEM leukemia): 353 nM
- TGI (COLO 205 colon): 1000 nM
- TGI (DU-145 prostate): 1410 nM
- TGI (EKVX NSCLC): 1360 nM
- TGI (HCC-2998 colon): 1200 nM
- TGI (HCT-116 colon): 300 nM
- TGI (HCT-15 colon): 296 nM
- TGI (HL-60(TB) leukemia): 198 nM
- TGI (HOP-62 NSCLC): 1910 nM
- TGI (HOP-92 NSCLC): 2870 nM
- TGI (HS 578T breast): 17800 nM
- TGI (HT29 colon): 508 nM
- TGI (IGROV1 ovarian): 849 nM
- TGI (KM12 colon): 593 nM
- TGI (LOX IMVI melanoma): 552 nM
- TGI (M14 melanoma): 785 nM
- TGI (MALME-3M melanoma): 963 nM
- TGI (MCF7 breast): 2090 nM
- TGI (MDA-MB-231 breast): 1910 nM
- TGI (MDA-MB-435): 721 nM
- TGI (MDA-N): 675 nM
- TGI (MOLT-4 leukemia): 233 nM
- TGI (NCI-H226 lung): 1740 nM
- TGI (NCI-H23 lung): 3590 nM
- TGI (NCI-H460 lung): 2910 nM
- TGI (NCI-H522 lung): 592 nM
- TGI (OVCAR-3 ovarian): 553 nM
- TGI (OVCAR-4 ovarian): 9900 nM
- TGI (OVCAR-5 ovarian): 3130 nM
- TGI (OVCAR-8 ovarian): 714 nM
- TGI (PC-3 prostate): 1270 nM
- TGI (RPMI-8226 leukemia): 181 nM
- TGI (RXF 393 renal): 1120 nM
- TGI (SF-268 CNS): 6780 nM
- TGI (SF-295 CNS): 5590 nM
- TGI (SK-MEL-2 melanoma): 1640 nM
- TGI (SK-MEL-28 melanoma): 1190 nM
- TGI (SK-MEL-5 melanoma): 875 nM
- TGI (SK-OV-3 ovarian): 6930 nM
- TGI (SN12C renal): 1180 nM
- TGI (SNB-19 CNS): 7720 nM
- TGI (SNB-75 CNS): 6090 nM
- TGI (SR leukemia): 123 nM
- TGI (SW-620 colon): 322 nM
- TGI (T-47D breast): 1410 nM
- TGI (TK-10 renal): 19200 nM
- TGI (U251 CNS): 1050 nM
- TGI (UACC-257 melanoma): 2990 nM
- TGI (UACC-62 melanoma): 976 nM
- TGI (UO-31 renal): 2960 nM
